According to ChEMBL document CHEMBL4421722, “Inhibitors of protein prenyltransferases” (2013):
pIC50: −log10 of the molar value.

Legend:
[1] = Inhibition of rat recombinant geranylgeranyltransferase type I expressed in Escherichia coli assessed as reduction in geranylgeranylation of RhoA incubated for 30 mins in presence of [3H]GGPP by scintillation counting assay relative to control
[2] = Inhibition of rat recombinant geranylgeranyltransferase type I expressed in Escherichia coli assessed as reduction in geranylgeranylation of K-Ras4B incubated for 30 mins in presence of [3H]GGPP by scintillation counting assay
[3] = biological target: T1, Geranylgeranyl transferase type-2 (Homo sapiens, UniProt P53611+Q92696); assay: Inhibition of RabGGTase (unknown origin) using YPTI as substrate protein and [3H]geranylgeranyl pyrophosphate incubated for 20 mins by scintillation counting assay; format: protein-complex assay
T1 sequence (P53611 whole entry): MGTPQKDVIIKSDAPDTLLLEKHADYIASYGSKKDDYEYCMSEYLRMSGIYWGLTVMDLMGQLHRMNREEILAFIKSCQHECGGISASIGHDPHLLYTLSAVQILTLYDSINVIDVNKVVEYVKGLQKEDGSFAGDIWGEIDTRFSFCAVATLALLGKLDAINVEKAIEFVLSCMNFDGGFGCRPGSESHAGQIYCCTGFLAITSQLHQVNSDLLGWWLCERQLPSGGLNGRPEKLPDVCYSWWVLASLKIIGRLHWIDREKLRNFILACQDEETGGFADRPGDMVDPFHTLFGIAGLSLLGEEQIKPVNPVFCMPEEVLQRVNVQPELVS
T1 sequence (Q92696 whole entry): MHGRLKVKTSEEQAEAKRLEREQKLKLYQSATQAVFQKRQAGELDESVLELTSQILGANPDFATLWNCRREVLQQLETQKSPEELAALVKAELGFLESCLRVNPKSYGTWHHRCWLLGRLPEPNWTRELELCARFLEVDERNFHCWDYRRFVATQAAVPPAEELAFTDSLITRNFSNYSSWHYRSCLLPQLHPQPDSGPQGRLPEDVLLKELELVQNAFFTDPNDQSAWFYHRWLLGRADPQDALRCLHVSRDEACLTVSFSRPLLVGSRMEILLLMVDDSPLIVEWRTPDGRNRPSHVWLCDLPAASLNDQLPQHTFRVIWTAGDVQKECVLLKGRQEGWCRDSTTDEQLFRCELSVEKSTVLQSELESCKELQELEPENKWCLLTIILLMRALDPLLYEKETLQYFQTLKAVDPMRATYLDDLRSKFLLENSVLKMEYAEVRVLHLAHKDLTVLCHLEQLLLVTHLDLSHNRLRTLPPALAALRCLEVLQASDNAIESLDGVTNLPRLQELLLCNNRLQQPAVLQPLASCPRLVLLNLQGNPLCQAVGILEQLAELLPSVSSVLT

[4] = biological target: Protein farnesyltransferase (Rattus norvegicus, UniProt Q02293+Q04631); assay: Inhibition of rat recombinant FTase alpha/beta expressed in Escherichia coli using K-Ras4B as a substrate as and [3H]farnesyl pyrophosphate incubated for 30 mins by scintillation counting assay
Rattus norvegicus [5] = species on record: Rattus norvegicus; assay: Inhibition of rat recombinant geranylgeranyltransferase type I expressed in Escherichia coli assessed as residual enzyme activity for geranylgeranylation of RhoA at 50 uM incubated for 30 mins in presence of [3H]GGPP by scintillation counting assay relative to control
Rattus norvegicus [6] = species on record: Rattus norvegicus; assay: Inhibition of rat recombinant geranylgeranyltransferase type I expressed in Escherichia coli assessed as residual enzyme activity for geranylgeranylation of K-Ras4B at 50 uM incubated for 30 mins in presence of [3H]GGPP by scintillation counting assay relative to control
MIA PaCa-2 = assay: Antiproliferative activity against human MIAPaCa2 cells assessed as inhibition of cell proliferation incubated for 72 hrs by CCK8 assay; format: functional, cell-based; conditions: MIA PaCa-2, 72 h
Capan-2 = assay: Antiproliferative activity against human Capan2 cells assessed as inhibition of cell proliferation incubated for 72 hrs by CCK8 assay; format: functional, cell-based; conditions: Capan-2, 72 h
K562 = assay: Antiproliferative activity against human K562 cells assessed as inhibition of cell proliferation incubated for 72 hrs by CCK8 assay; format: functional, cell-based; conditions: K562, 72 h
Jurkat = assay: Antiproliferative activity against human Jurkat cells assessed as inhibition of cell proliferation incubated for 72 hrs by CCK8 assay; format: functional, cell-based
PANC-1 = assay: Antiproliferative activity against human PANC1 cells assessed as inhibition of cell proliferation incubated for 72 hrs by CCK8 assay; format: functional, cell-based; conditions: PANC-1, 72 h
MDA-MB-231 = assay: Antiproliferative activity against human MDA-MB-231 cells assessed as inhibition of cell proliferation incubated for 72 hrs by CCK8 assay; format: functional; conditions: MDA-MB-231, 72 h
BT-474 = assay: Antiproliferative activity against human BT474 cells assessed as inhibition of cell proliferation incubated for 72 hrs by CCK8 assay; format: functional, cell-based; conditions: BT-474, 72 h
ASPC1 = assay: Antiproliferative activity against human AsPC1 cells assessed as inhibition of cell proliferation incubated for 6 days by CCK8 assay; format: functional, cell-based; conditions: ASPC1, 144 h
CFPAC-1 = assay: Antiproliferative activity against human CFPAC-1 cells assessed as inhibition of cell proliferation incubated for 72 hrs by CCK8 assay; format: functional, cell-based; conditions: CFPAC-1, 72 h
[7] = Antiproliferative activity against human MCF10A cells assessed as inhibition of cell proliferation incubated for 72 hrs by CCK8 assay; format: cell-based, MCF-10A
MCF7 = assay: Antiproliferative activity against human MCF7 cells assessed as inhibition of cell proliferation incubated for 6 days by CCK8 assay; format: functional, cell-based; conditions: MCF7, 144 h

Cc1ccc(S(=O)(=O)N2[C@H](C)C=C(C(=O)O)[C@@H]2c2ccc(Cl)c(Cl)c2)cc1
pIC50 [1]: 4.35
pIC50 [2]: 4.42

Cc1ccc(S(=O)(=O)N2[C@H](CC3CCCC3)[C@@H](SCCC(=O)OC(C)(C)C)[C@@H](C(=O)O)[C@@H]2c2cccc(Cl)c2)cc1
pIC50 [1]: 5.06
pIC50 [3]: 5.33
pIC50 [4]: < 4.00
Activity (Rattus norvegicus [5]): 5.6%
Activity (Rattus norvegicus [6]): 20.6%

CCC[C@@H]1[C@@H](Sc2ccc(OC)cc2)[C@@H](C(=O)O)[C@H](c2ccc(Cl)c(Cl)c2)N1S(=O)(=O)c1ccc(C)cc1
pIC50 [1]: > 5.60
pIC50 [2]: > 5.70
Activity (Rattus norvegicus [5]): 1.1%
Activity (Rattus norvegicus [6]): 10.9%

CC(C)(C)[C@@H]1C=C(C(=O)N[C@@H](Cc2ccccc2)C(N)=O)[C@H](c2ccc(Br)cc2)N1S(=O)(=O)c1ccccc1Cl
pIC50 [1]: 4.80 to 5.22
GI50 (MIA PaCa-2): 6.15 to 12.1 µM
GI50 (Capan-2): 8.32 to 10.7 µM
GI50 (K562): 5.21 to 9.18 µM
GI50 (Jurkat): 4.74 to 8.75 µM
GI50 (PANC-1): 9.05 to 12 µM
GI50 (MDA-MB-231): 4.43 to 11.3 µM
GI50 (BT-474): 9.08 to 9.9 µM
GI50 (ASPC1): 12.2 to 16.8 µM
GI50 (CFPAC-1): 6.16 to 6.3 µM

CC(C)C[C@H](NC(=O)C1=CC[C@@H](c2cccc(Br)c2)N(S(=O)(=O)c2ccc(Cl)cc2)[C@H]1c1cccc(Cl)c1)C(N)=O
GI50 at 72 h [7]: 14.2 µM
GI50 (K562): 7.06 µM
GI50 (MCF7): 3.43 µM

CC(C)C[C@H](NC(=O)C1=CC[C@@H](c2cccc(Cl)c2)N(S(=O)(=O)c2ccc(Br)cc2)[C@H]1c1cccc(Br)c1)C(N)=O
pIC50 [1]: < 4.30
GI50 (K562): 4.37 to 12.9 µM
GI50 (Jurkat): 2.22 to 6.38 µM

Cc1ccc(S(=O)(=O)N2[C@@H](c3ccccc3)C(C(=O)O)=CC[C@H]2c2ccc(F)cc2)cc1
pIC50 [1]: 3.92
pIC50 [2]: 4.10

COC(=O)[C@H](CC(C)C)NC(=O)c1ccc(NCc2cnc[nH]2)cc1-c1ccccc1C
pIC50 [1]: 6.30
pIC50 [2]: 6.22

Cc1ccccc1S(=O)(=O)N1[C@@H](c2ccc(Cl)cc2)C(C(=O)N[C@@H](Cc2ccccc2)C(=O)O)=C[C@H]1C(C)(C)C
GI50 (MIA PaCa-2): 7.48 µM
GI50 (Capan-2): 11.5 µM
GI50 (ASPC1): 12.4 µM
GI50 (CFPAC-1): 6.38 µM

CC(C)(C)[C@@H]1C=C(C(=O)O)[C@H](c2ccccc2)N1S(C)(=O)=O
pIC50 [1]: 4.64
pIC50 [2]: 4.82

CC(C)(C)OC(=O)CCS[C@H]1[C@@H](C(=O)O)[C@H](c2ccc(Cl)cc2)N(S(=O)(=O)c2ccc(Cl)cc2)[C@@H]1CC1CCCC1
pIC50 [1]: 5.05
pIC50 [3]: 5.51
pIC50 [4]: < 4.00
Activity (Rattus norvegicus [5]): 9.8%
Activity (Rattus norvegicus [6]): 22.5%

CCC[C@@H]1[C@@H](Sc2ccc(OC)cc2)[C@@H](C(=O)O)[C@H](c2ccc(Br)cc2)N1S(=O)(=O)c1ccc(C)cc1
pIC50 [1]: < 4.30
pIC50 [3]: 5.35
pIC50 [4]: < 4.00

Cc1ccc(S(=O)(=O)N2[C@@H](c3cccc(F)c3)C(C(=O)O)=C[C@H]2C(C)(C)C)cc1
pIC50 [1]: 4.64
pIC50 [2]: 4.74
Activity (Rattus norvegicus [5]): 9.1%
Activity (Rattus norvegicus [6]): 23.7%

CC(C)C[C@H](NC(=O)C1=CC[C@@H](c2cccc(Br)c2)N(S(=O)(=O)c2ccc(F)cc2)[C@H]1c1cccc(Cl)c1)C(N)=O
pIC50 [1]: 4.48 to 5.16
GI50 (K562): 1.7 to 10.2 µM
GI50 (Jurkat): 0.32 to 1.76 µM

CCCCCCS[C@H]1[C@@H](C(=O)O)[C@H](c2ccc(Br)cc2)N(S(=O)(=O)c2ccc(C)cc2)[C@@H]1CC
pIC50 [1]: < 4.30
pIC50 [3]: 5.32
pIC50 [4]: < 4.00
